Results reported in publication PMC5831858, “Pharmacological characterisation of CR6086, a potent prostaglandin E2 receptor 4 antagonist, as a new potential disease-modifying anti-rheumatic drug” (Arthritis Research & Therapy, 2018).
Where two headings read alike, the source gives them in different places.

Columns and labels:
NK1 = NK1 (Homo sapiens, UniProt P25103); assay: Neurokinin receptor NK1 binding; conditions: [^125I]BH-SP, U-373MG cells (endogenous), read-out: CR6086 Activity at 10µM
DP1 = DP1 (Homo sapiens, UniProt Q13258); assay: Eicosanoid receptor DP1 functional assay; assay type: cell-based; conditions: CHO cells
IL-23 release = IL-23 release from human dendritic cells; assay type: cell-based; conditions: Dendritic cell, PGE2-stimulated, 24 h
Experimental: PBMCs were purified using Histopaque (Sigma-Aldrich, St. Louis, MO, USA). CD14^+ cells were positively selected in a magnetic field (magnetic-activated cell sorting [MACS]; Miltenyi Biotec, Bergisch Gladbach, Germany). Purified CD14^+ cells were subsequently cultured for 7 days in differentiation medium (RPMI 1640 + 10% FBS, granulocyte-macrophage colony-stimulating factor 50 ng/ml and IL-4 100 ng/ml) and then stimulated with LPS (10 ng/ml), R848 2.5 μg/ml and PGE2 10 nM for 24 h in the presence of CR6086 (0.01–30 μM) or naproxen (1–30 μM). IL-23 release was measured by enzyme-linked immunosorbent assay (ELISA) (R&D Systems, Minneapolis, MN, USA).

D1 = D1 (Homo sapiens, UniProt P21728); assay: Dopamine receptor D1 binding; conditions: [^3H]SCH 23390, Human recombinant CHO cells, read-out: CR6086 Activity at 10µM
P2Y = assay: Purinergic receptor P2Y binding; conditions: [^35S]dATPαS, Rat cerebral cortex
P2X = assay: Purinergic receptor P2X binding; conditions: [^3H]α,β-MeATP, Rat urinary bladder
5-HT1B = 5-HT1B (Rattus norvegicus, UniProt P28564); assay: Serotonin receptor 5-HT1B binding; conditions: [^125I]CYP (+30µM isoproterenol), Rat cerebral cortex, read-out: CR6086 Activity at 10µM
mouse EP4 receptor = biological target: T1, mouse EP4 receptor (Mus musculus, UniProt P32240); assay: EP4 radioligand binding assay ([^3H]PGE2), mouse receptor; conditions: [^3H]PGE2 displacement; transiently transfected HEK293 membranes; read-out: Ki CR6086
T1 construct: the cDNA encoding the full-length rat (NM_032076) or mouse (NM_001136079) EP4 receptors; host or cells: HEK293 (transient)
Source text: (§1) For rodent EP4 receptor cloning, the cDNA encoding the full-length rat (NM_032076) or mouse (NM_001136079) EP4 receptors cloned in pCMV6 entry was provided by OriGene Inc. (TrueORF Gold, catalogue numbers RN206839 and MC216813; OriGene, Rockville, MD, USA). Expression of rat and mouse receptors was obtained by transfecting HEK293 cells with the respective vector using Lipofectamine 3000 reagent (Thermo Fisher Scientific) according to the manufacturer’s instructions.
(§2) Membranes expressing the human EP4 receptor were prepared from stably transfected HEK293 cell line. […] Protein content of the cell membrane suspension was determined using bovine serum albumin (BSA) as a standard.
(§3) Experimental procedures were performed according to the method of Abramovitz et al.. […] The residual [^3H]PGE2 binding was determined using a solid scintillation counter (TopCount; PerkinElmer) after at least 1 h of stabilisation. In saturation binding studies, isotherm-binding curves generated with six to eight different concentrations of [^3H]PGE2 (from 0.5 to 25 nM) were evaluated. […]
(§4) Specific binding to the receptors was defined as the difference between total binding and non-specific binding, as determined in the presence of an excess of unlabelled ligand. […] Competition curves were analysed to assess the half-maximal inhibitory concentration (IC50). […] The results of replicated curves were expressed as mean ± SEM.

MC4 = MC4 (Homo sapiens, UniProt P32245); assay: MC4 receptor binding; conditions: [^125I]NDP-α-MSH, Human recombinant CHO cells, read-out: CR6086 Activity at 10µM
rat EP4 receptor = rat EP4 receptor (Rattus norvegicus, UniProt P43114); assay: EP4 radioligand binding assay ([^3H]PGE2), rat receptor; parameters: the cDNA encoding the full-length rat (NM_032076) or mouse (NM_001136079) EP4 receptors; host or cells: HEK293 (transient)
Source text: as §1, §2, §3, §4

rat EP4 receptor, sequence (P43114 whole entry): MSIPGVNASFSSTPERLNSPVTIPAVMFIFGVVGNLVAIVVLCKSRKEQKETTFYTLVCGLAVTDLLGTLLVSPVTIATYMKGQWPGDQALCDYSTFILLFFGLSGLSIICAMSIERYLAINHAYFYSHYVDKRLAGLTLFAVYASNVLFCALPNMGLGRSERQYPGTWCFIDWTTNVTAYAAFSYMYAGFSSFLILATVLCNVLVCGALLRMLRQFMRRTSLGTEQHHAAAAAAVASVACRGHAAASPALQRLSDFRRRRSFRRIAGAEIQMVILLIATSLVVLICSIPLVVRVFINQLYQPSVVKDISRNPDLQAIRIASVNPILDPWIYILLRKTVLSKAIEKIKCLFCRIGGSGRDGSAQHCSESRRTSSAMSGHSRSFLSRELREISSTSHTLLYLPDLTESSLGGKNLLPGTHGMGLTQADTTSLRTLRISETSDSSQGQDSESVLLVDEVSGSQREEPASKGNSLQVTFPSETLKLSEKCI
DP1, sequence (Q13258 whole entry): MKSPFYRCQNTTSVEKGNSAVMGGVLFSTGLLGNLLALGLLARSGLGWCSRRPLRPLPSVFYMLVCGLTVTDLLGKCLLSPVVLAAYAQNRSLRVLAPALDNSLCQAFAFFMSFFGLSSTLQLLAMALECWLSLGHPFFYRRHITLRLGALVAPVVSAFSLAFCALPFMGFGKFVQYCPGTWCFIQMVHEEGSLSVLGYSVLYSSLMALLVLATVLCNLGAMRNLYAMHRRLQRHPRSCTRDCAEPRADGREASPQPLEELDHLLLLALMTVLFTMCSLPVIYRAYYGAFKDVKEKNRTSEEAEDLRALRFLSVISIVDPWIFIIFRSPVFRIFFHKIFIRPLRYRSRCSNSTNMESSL
5-HT1B, sequence (P28564 whole entry): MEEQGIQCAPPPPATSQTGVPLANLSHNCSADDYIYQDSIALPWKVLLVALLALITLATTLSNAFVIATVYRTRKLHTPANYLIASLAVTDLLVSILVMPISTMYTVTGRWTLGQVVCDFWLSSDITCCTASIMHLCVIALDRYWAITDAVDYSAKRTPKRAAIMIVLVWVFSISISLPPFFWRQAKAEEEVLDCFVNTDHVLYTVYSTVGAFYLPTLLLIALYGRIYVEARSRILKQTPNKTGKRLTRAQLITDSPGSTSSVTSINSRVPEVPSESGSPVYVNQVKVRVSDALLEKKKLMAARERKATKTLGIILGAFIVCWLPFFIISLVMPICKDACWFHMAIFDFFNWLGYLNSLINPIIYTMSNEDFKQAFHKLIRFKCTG
D1, sequence (P21728 whole entry): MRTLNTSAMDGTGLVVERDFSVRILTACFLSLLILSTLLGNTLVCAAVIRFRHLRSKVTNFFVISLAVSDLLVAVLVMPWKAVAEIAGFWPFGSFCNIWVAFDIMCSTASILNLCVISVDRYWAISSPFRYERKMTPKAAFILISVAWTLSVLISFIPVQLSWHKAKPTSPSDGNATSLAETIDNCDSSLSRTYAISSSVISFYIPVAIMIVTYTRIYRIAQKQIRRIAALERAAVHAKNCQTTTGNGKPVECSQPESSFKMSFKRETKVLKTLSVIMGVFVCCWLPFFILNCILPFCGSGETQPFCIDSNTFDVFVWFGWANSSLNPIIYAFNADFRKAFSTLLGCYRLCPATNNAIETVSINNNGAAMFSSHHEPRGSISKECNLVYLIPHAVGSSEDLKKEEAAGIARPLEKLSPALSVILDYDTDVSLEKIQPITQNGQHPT
NK1, sequence (P25103 whole entry): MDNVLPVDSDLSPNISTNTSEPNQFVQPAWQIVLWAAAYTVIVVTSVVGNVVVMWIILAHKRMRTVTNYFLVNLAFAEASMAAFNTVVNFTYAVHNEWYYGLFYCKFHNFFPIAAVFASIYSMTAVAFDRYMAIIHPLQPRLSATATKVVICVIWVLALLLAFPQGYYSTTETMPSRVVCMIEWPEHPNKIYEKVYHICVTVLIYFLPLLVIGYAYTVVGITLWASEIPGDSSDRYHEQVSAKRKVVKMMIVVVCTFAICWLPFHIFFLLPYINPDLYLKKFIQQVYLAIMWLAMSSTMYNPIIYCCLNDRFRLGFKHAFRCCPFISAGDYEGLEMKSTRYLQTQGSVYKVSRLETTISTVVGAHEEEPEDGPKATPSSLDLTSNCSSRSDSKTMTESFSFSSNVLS
T1 sequence (P32240 whole entry): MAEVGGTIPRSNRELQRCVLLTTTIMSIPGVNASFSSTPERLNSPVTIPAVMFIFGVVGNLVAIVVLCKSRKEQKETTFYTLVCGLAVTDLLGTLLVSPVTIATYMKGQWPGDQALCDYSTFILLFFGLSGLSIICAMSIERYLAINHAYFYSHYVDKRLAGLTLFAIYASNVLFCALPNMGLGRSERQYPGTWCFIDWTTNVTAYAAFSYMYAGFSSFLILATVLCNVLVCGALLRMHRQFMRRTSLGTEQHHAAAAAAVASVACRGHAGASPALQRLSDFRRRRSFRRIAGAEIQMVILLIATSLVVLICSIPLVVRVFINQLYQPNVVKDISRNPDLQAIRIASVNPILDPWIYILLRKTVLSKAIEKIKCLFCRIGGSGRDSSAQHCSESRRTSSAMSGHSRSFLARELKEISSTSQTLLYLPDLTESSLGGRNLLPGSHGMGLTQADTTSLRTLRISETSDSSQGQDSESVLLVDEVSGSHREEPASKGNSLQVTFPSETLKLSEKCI
MC4, sequence (P32245 whole entry): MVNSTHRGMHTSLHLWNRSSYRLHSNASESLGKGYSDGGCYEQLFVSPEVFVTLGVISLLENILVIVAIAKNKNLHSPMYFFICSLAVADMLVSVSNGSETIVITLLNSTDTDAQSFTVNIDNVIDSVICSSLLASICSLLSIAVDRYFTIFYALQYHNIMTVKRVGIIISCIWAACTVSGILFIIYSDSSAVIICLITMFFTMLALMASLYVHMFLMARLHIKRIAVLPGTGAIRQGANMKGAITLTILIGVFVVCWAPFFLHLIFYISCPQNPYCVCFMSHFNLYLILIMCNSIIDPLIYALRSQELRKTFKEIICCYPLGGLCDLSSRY

O=C([O-])c1ccc(C2(NC(=O)[C@H]3CC4(CCN3Cc3ccc(C(F)(F)F)cc3)CC4)CC2)cc1.[Na+] [CR6086, Sodium (R)-4-(1-(6-(4-(trifluoromethyl)benzyl)-6-azaspiro[2.5]octane-5-carboxamido)cyclopropyl)benzoate]
inhibition at 10 µM (NK1): < 20% | inhibition at 10 µM (DP1; agonist effect, read-out: CR6086 Activity at 10µM): < 20% | CR6086 Activity at 10µM (DP1; antagonist effect): IN (IN = < 20% displacement or inhibition (all tables)) | IC50 (IL-23 release): 608 nM | inhibition at 10 µM (D1): < 20% | CR6086 Activity at 10µM (P2Y): IN (IN = < 20% displacement or inhibition (all tables)) | CR6086 Activity at 10µM (P2X): IN (IN = < 20% displacement or inhibition (all tables)) | inhibition at 10 µM (5-HT1B): < 20% | Ki (mouse EP4 receptor): 75.9 ± 7.6 nM | inhibition at 10 µM (MC4): < 20% | Ki (rat EP4 receptor; [^3H]PGE2 displacement, transiently transfected HEK293 membranes, read-out: Ki CR6086): 76.6 ± 12.3 nM | Ki (rat EP4 receptor; expressed as mass concentration, read-out: Ki value for the rat EP4 receptor (converted)): 73.2 nM
